The record followed here is patent publication US12595264B2, “Heterocyclic GLP-1 agonists” (Gasherbrum Bio, Inc., priority 2020, dated 2026).

The target in the first assay is T1, GLP-1 Receptor (Homo sapiens, UniProt P43220).
T1 construct: host or cells: HEK293/GLP1R/CRE-LUC (HEK293/CRE-Luc stably expressing GLP-1R)
T1 sequence (P43220 24-463): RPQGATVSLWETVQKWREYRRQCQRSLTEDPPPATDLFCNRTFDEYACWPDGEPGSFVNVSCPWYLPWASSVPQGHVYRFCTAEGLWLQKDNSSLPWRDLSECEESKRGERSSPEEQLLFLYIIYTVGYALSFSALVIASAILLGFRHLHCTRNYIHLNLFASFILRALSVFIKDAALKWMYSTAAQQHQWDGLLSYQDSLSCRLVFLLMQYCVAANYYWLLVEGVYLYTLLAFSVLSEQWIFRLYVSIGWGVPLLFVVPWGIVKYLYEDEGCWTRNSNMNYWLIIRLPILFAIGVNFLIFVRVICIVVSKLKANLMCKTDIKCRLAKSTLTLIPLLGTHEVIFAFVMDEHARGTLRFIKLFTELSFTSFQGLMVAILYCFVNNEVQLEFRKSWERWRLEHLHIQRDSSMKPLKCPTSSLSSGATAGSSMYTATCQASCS
The assay is described as follows: GLP-1R agonist cAMP stimulation assay (HEK293/GLP1R/CRE-LUC cells, HTRF cAMP dynamic 2 kit). It counts as cell-based. The conditions noted are these: HEK293/CRE-Luc cell line (HDB), 30 min incubation, read-out: GLP1R cAMP Stimulation DR: EC50 (nM) [Species: Human, Assay Cell Line: HDB]. Here is the method:
Activation of GLP-1 receptor is known to stimulate cyclic AMP (cAMP) production in cells which indicates primary coupling to the Gαs subunit of the G protein heterotrimeric complex.
To optimize functional activity directed toward Gαs coupling, a HEK293/CRE-Luc cell line developed by HDB stably expressing the GLP-1 Receptor was used. 200×concentration of compound working solutions were prepared (Agilent Technologies Bravo) with ½ log serial dilution in 384-well Echo LDV plate (Labcyte, Cat #LP-0200). 50 nL/well 200×concentration of compound working solutions were moved to 384-well white low volume plate (Greiner, Cat #784075) using Labcyte ECHO550. 1×10^5 cells/mL HEK293/GLP1R/CRE-LUC(HD Biosciences) cell suspensions prepared with assay buffer[DPBS containing 0.5 mM IBMX (Sigma, Cat #15879) and 0.1% BSA (GENVIEW, Cat #FA016-100g)], 10 uL cell suspensions were added to each well of previous generated assay plate which already contains 50n1 compound at 200× concentration using ThermoFisher Multidrop Combi (1000 cells/well). Seal the plate and incubate at 37° C. with 5% CO2 for 30 min.
After incubation the cAMP assay signal was generated using cAMP dynamic 2 Kit (Cisbio). 5 μL cAMP-d2 working solution was added to each well, followed with 5 μL Anti-cAMP antibody-cryptate working solution added to each well using ThermoFisher Multidrop Combi. Incubate at room temperature for 1 hour protected from light. Read the fluorescence at 665 and 615 nm with Reader PerkinElmer EnVision. % Activity=100%×(mean RLU of test sample−mean RLU of vehicle control)/(mean RLU of MAX control−mean RLU of vehicle control))
A general note: TR-FRET usually uses a lanthanide donor and a delayed reading to cut background.
For `Cc1cc(-c2nn3c(c2-n2ccn(-c4ccc5c(cnn5C)c4F)c2=O)C(C)N(C(=O)c2cc4cc(C5CCOCC5)ccc4n2[C@@]2(c4noc(=O)[nH]4)C[C@@H]2C)CC3)cc(C)c1F` (stereo partly drawn) [Compound 109a, 3-((1S,2S)-1-(2-(3-(3-(4-fluoro-1-methyl-1H-indazol-5-yl)-2-oxo-2,3-dihydro-1H-imidazol-1-yl)-2-(4-fluoro-3,5-dimethylphenyl)-4-methyl-4,5,6,7-tetrahydropyrazolo[1,5-a]pyrazine-5-carbonyl)-5-(tetrahydro-2H-pyran-4-yl)-1H-indol-1-yl)-2-methylcyclopropyl)-1,2,4-oxadiazol-5(4H)-one], the EC50 came out at 0.18 nM. On to `CCP(=O)(CC)c1ccc(-n2ccn(-c3c(-c4cc(C)c(F)c(C)c4)nn4c3C(C)N(C(=O)c3cc5cc([C@H]6CCOC(C)(C)C6)ccc5n3[C@@]3(c5noc(=O)[nH]5)C[C@@H]3C)CC4)c2=O)cc1NC` (single isomer, unassigned) [Compound 113a], for which the EC50 was 0.17 nM.

Consider `Cc1cc(-c2nn3c(c2-n2ccn(-c4ccc5c(cnn5C)c4F)c2=O)C(C)N(C(=O)c2cc4cc([C@H]5CCOC(C)(C)C5)ccc4n2[C@@]2(c4noc(=O)[nH]4)C[C@@H]2C)CC3)cc(C)c1F` (single isomer, unassigned) [Compound 117a], for which the EC50 worked out at 0.07 nM. The same measure, in the same setting: in the case of `Cc1cc(-c2nn3c(c2-n2ccn(-c4ccc5c(cnn5C)c4)c2=O)C(C)N(C(=O)c2cc4cc(C5CCOCC5)ccc4n2C2(c4noc(=O)[nH]4)CC2)CC3)cc(C)c1F` (stereo not shown) [Compound 103, 3-(1-(2-(2-(4-fluoro-3,5-dimethylphenyl)-4-methyl-3-(3-(1-methyl-1H-indazol-5-yl)-2-oxo-2,3-dihydro-1H-imidazol-1-yl)-4,5,6,7-tetrahydropyrazolo[1,5-a]pyrazine-5-carbonyl)-5-(tetrahydro-2H-pyran-4-yl)-1H-indol-1-yl)cyclopropyl)-1,2,4-oxadiazol-5(4H)-one] it was 0.29 nM; in that of `CCP(=O)(CC)c1ccc(-n2ccn(-c3c(-c4cc(C)c(F)c(C)c4)nn4c3C(C)N(C(=O)c3cc5cc(N6CCOCC6)ccc5n3[C@@]3(c5noc(=O)[nH]5)C[C@@H]3C)CC4)c2=O)cc1NC` (single isomer, unassigned) [Compound 114a], 0.068 nM; in that of `CCP(=O)(CC)c1ccc(-n2ccn(-c3c(-c4cc(C)c(F)c(C)c4)nn4c3C(C)N(C(=O)c3cc5cc(C6CCOCC6)ccc5n3[C@@]3(c5noc(=O)[nH]5)C[C@@H]3C)CC4)c2=O)cc1NC` (single isomer, unassigned) [Compound 112a], 42 nM.

As for `CCP(=O)(CC)c1ccc(-n2ccn(-c3c(-c4cc(C)c(F)c(C)c4)nn4c3C(C)N(C(=O)c3cc5cc(C6CCOCC6)ccc5n3[C@@]3(c5noc(=O)[nH]5)C[C@@H]3C)CC4)c2=O)cc1NC` (mixture of isomers) [Compound 108a, 3-((1S,2S)-1-(2-(3-(3-(4-(diethylphosphoryl)-3-(methylamino)phenyl)-2-oxo-2,3-dihydro-1H-imidazol-1-yl)-2-(4-fluoro-3,5-dimethylphenyl)-4-methyl-4,5,6,7-tetrahydropyrazolo[1,5-a]pyrazine-5-carbonyl)-5-(tetrahydro-2H-pyran-4-yl)-1H-indol-1-yl)-2-methylcyclopropyl)-1,2,4-oxadiazol-5(4H)-one], the EC50 stood at 0.1 nM. As to `CCP(=O)(CC)c1ccc(-n2ccn(-c3c(-c4cc(C)c(F)c(C)c4)nn4c3C(C)N(C(=O)c3cc5cc(C6CCOCC6)ccc5n3C3(c5noc(=O)[nH]5)CC3)CC4)c2=O)cc1NC` (stereo not shown) [Compound 104, 3-(1-(2-(3-(3-(4-(diethylphosphoryl)-3-(methylamino)phenyl)-2-oxo-2,3-dihydro-1H-imidazol-1-yl)-2-(4-fluoro-3,5-dimethylphenyl)-4-methyl-4,5,6,7-tetrahydropyrazolo[1,5-a]pyrazine-5-carbonyl)-5-(tetrahydro-2H-pyran-4-yl)-1H-indol-1-yl)cyclopropyl)-1,2,4-oxadiazol-5(4H)-one], the EC50 worked out at 0.18 nM.

For the compound `CCP(=O)(CC)c1ccc(-n2ccn(-c3c(-c4cc(C)c(F)c(C)c4)nn4c3C(C)N(C(=O)c3cc5cc(N6CCOC(C)(C)C6)ccc5n3[C@@]3(c5noc(=O)[nH]5)C[C@@H]3C)CC4)c2=O)cc1NC` (single isomer, unassigned) [Compound 115a], the EC50 came out at 0.15 nM. As for `CCP(=O)(CC)c1ccc(-n2ccn(-c3c(-c4cc(C)c(F)c(C)c4)nn4c3C(C)N(C(=O)c3cc5cc(C6CCOCC6)ccc5n3[C@@]3(c5noc(=O)[nH]5)C[C@@H]3C)CC4)c2=O)cc1NC` (single isomer, unassigned) [Compound 111a], the EC50 was 0.042 nM. Still for that read-out and setting: in the case of `Cc1cc(-c2nn3c(c2-n2ccn(-c4ccc5c(cnn5C)c4)c2=O)CN(C(=O)c2cc4cc(C5CCOCC5)ccc4n2C2(c4noc(=O)[nH]4)CCC2)CC3)cc(C)c1F` [Compound 102, 3-(1-(2-(2-(4-fluoro-3,5-dimethylphenyl)-3-(3-(1-methyl-1H-indazol-5-yl)-2-oxo-2,3-dihydro-1H-imidazol-1-yl)-4,5,6,7-tetrahydropyrazolo[1,5-a]pyrazine-5-carbonyl)-5-(tetrahydro-2H-pyran-4-yl)-1H-indol-1-yl)cyclobutyl)-1,2,4-oxadiazol-5(4H)-one] it was 3300 nM; in that of `Cc1cc(-c2nn3c(c2-n2ccn(-c4ccc5c(cnn5C)c4)c2=O)CN(C(=O)c2cc4cc(C5CCOCC5)ccc4n2[C@@]2(C(=O)O)C[C@@H]2C)CC3)cc(C)c1F` [Compound 106a, (1S,2S)-1-(2-(2-(4-fluoro-3,5-dimethylphenyl)-3-(3-(1-methyl-1H-indazol-5-yl)-2-oxo-2,3-dihydro-1H-imidazol-1-yl)-4,5,6,7-tetrahydropyrazolo[1,5-a]pyrazine-5-carbonyl)-5-(tetrahydro-2H-pyran-4-yl)-1H-indol-1-yl)-2-methylcyclopropanecarboxylic acid], 113 nM. Consider `Cc1cc(-c2nn3c(c2-n2ccn(-c4ccc5c(cnn5C)c4)c2=O)CN(C(=O)c2cc4cc(C5CCOCC5)ccc4n2C2(c4noc(=O)[nH]4)CC2)CC3)cc(C)c1F` [Compound 101, 3-(1-(2-(2-(4-fluoro-3,5-dimethylphenyl)-3-(3-(1-methyl-1H-indazol-5-yl)-2-oxo-2,3-dihydro-1H-imidazol-1-yl)-4,5,6,7-tetrahydropyrazolo[1,5-a]pyrazine-5-carbonyl)-5-(tetrahydro-2H-pyran-4-yl)-1H-indol-1-yl)cyclopropyl)-1,2,4-oxadiazol-5(4H)-one], for which the EC50 is 3.41 nM. As for `Cc1cc(-c2nn3c(c2-n2ccn(-c4ccc5c(cnn5C)c4F)c2=O)C(C)N(C(=O)c2cc4cc(C5CCOCC5)ccc4n2[C@@]2(c4noc(=O)[nH]4)C[C@@H]2C)CC3)cc(C)c1F` (single isomer, unassigned) [Compound 110a], the EC50 came out at 0.13 nM.

In the case of `Cc1cc(-c2nn3c(c2-n2ccn(-c4ccc5c(cnn5C)c4)c2=O)CN(C(=O)c2cc4cc(C5CCOCC5)ccc4n2[C@@]2(c4noc(=O)[nH]4)C[C@@H]2C)CC3)cc(C)c1F` [Compound 105a, 3-((1S,2S)-1-(2-(2-(4-fluoro-3,5-dimethylphenyl)-3-(3-(1-methyl-1H-indazol-5-yl)-2-oxo-2,3-dihydro-1H-imidazol-1-yl)-4,5,6,7-tetrahydropyrazolo[1,5-a]pyrazine-5-carbonyl)-5-(tetrahydro-2H-pyran-4-yl)-1H-indol-1-yl)-2-methylcyclopropyl)-1,2,4-oxadiazol-5(4H)-one], the EC50 came to 1.86 nM. Take `CCP(=O)(CC)c1ccc(-n2ccn(-c3c(-c4cc(C)c(F)c(C)c4)nn4c3C(C)N(C(=O)c3cc5cc(C6CCC(F)(F)CC6)ccc5n3[C@@]3(c5noc(=O)[nH]5)C[C@@H]3C)CC4)c2=O)cc1NC` (single isomer, unassigned) [Compound 116a]: the EC50 stood at 0.42 nM.

Staying with this assay, now noted: HEK293/CRE-Luc cell line (HDB), 30 min incubation, read-out: GLP1R cAMP Stimulation DR: pEC50 (M) [Species: Human, Assay Cell Line: HDB] (converted).
As for `CNc1cc(-n2ccn(-c3c(-c4cc(C)c(F)c(C)c4)nn4c3C(C)N(C(=O)c3cc5cc(C6CCOCC6)ccc5n3[C@@]3(c5noc(=O)[nH]5)C[C@@H]3C)CC4)c2=O)ccc1P(C)(C)=O` (single isomer, unassigned) [Compound 118a], the EC50 was 0.0316 nM. With `Cc1cc(-c2nn3c(c2-n2ccn(-c4ccc5c(cnn5C)c4)c2=O)CN(C(=O)c2cc4cc(C5CCOCC5)ccc4n2C2(c4noc(=O)[nH]4)CCC2)CC3)cc(C)c1F` [Compound 102, 3-(1-(2-(2-(4-fluoro-3,5-dimethylphenyl)-3-(3-(1-methyl-1H-indazol-5-yl)-2-oxo-2,3-dihydro-1H-imidazol-1-yl)-4,5,6,7-tetrahydropyrazolo[1,5-a]pyrazine-5-carbonyl)-5-(tetrahydro-2H-pyran-4-yl)-1H-indol-1-yl)cyclobutyl)-1,2,4-oxadiazol-5(4H)-one], the EC50 was 2190 nM. Still for that read-out and setting: the result for `Cc1cc(-c2nn3c(c2-n2ccn(-c4ccc5c(cnn5C)c4)c2=O)CN(C(=O)c2cc4cc(C5CCOCC5)ccc4n2C2(c4noc(=O)[nH]4)CC2)CC3)cc(C)c1F` [Compound 101, 3-(1-(2-(2-(4-fluoro-3,5-dimethylphenyl)-3-(3-(1-methyl-1H-indazol-5-yl)-2-oxo-2,3-dihydro-1H-imidazol-1-yl)-4,5,6,7-tetrahydropyrazolo[1,5-a]pyrazine-5-carbonyl)-5-(tetrahydro-2H-pyran-4-yl)-1H-indol-1-yl)cyclopropyl)-1,2,4-oxadiazol-5(4H)-one] reads 3.31 nM.
